Assay results from the NIST ThermoML archive (doi:10.1021/acs.jced.8b00786).

Settings: Liquid; for viscosity: Capillary tube (Ostwald / Ubbelohde) method; for mass density: Vibrating tube method

CC(C)CCCC(C)CCCC(C)CCCCC(C)CCCC(C)CCCC(C)C (stereo not given) [2,6,10,15,19,23-hexamethyltetracosane]
Settings	mass density [kg/m3]	viscosity [mPa·s]
313.15 K, 5700 kPa	798.1	16.52
313.15 K, 13500 kPa	804.3	19.37
313.15 K, 23500 kPa	811.4	23.38
313.15 K, 45700 kPa	822.6	35.26
313.15 K, 68000 kPa	832.5	52.85
338.15 K, 7900 kPa	783.2	7.82
338.15 K, 11000 kPa	785.2	8.05
338.15 K, 22500 kPa	793.3	10.19
338.15 K, 45600 kPa	807.5	14.4
338.15 K, 60500 kPa	814.6	18.07
338.15 K, 76300 kPa	820.5	22.98
363.15 K, 10600 kPa	769.9	4.5
363.15 K, 21500 kPa	777.9	5.38
363.15 K, 42500 kPa	791.1	7.21
363.15 K, 63700 kPa	802.4	9.47
